This data set can be described thus: moisture sorption (Dynamic Vapor Sorption), water content versus relative humidity. The data set is classed as physicochemical. Here is the method:
The moisture sorption isotherms were recorded with a SPS-11 moisture sorption analyzer (MD Messtechnik, Ulm, D). […] The equilibrium condition for each step was set to a mass constancy of ±0.005% over 60 min. The temperature was 25±0.1° C.

Each structure is given as a SMILES string.

Take `CCC[C@H](NC(=O)[C@@H]1[C@H]2CCC[C@H]2CN1C(=O)[C@@H](NC(=O)[C@@H](NC(=O)c1cnccn1)C1CCCCC1)C(C)(C)C)C(=O)C(=O)NC1CC1` [Form C, (1S,3aR,6aS)-2-[(2S)-2-[[(2S)-2-Cyclohexyl-2-(pyrazine-2-carbonylamino)acetyl]amino]-3,3-dimethylbutanoyl]-N-[(3S)-1-(cyclopropylamino)-1,2-dioxohexan-3-yl]-3,3a,4,5,6,6a-hexahydro-1H-cyclopenta[c]pyrrole-1-carboxamide]: the water content result runs as follows: (relative humidity of about 40%) “about 0.5 moles of water”; (relative humidity of about 70%-80%) “about 0.9 moles of water”.

For the origin of these results see patent US20160039871A1, “NOVEL FORMS OF TELAPREVIR” (SANDOZ AG, priority 2012, published 2016).
